The values below come from patent publication US12018283B2, “Method for producing insulin-producing cells” (KATAOKA CORPORATION, priority 2018, dated 2024).

The test system of this experiment is human fibroblasts. The experiment is described as follows: Direct induction from human fibroblasts into insulin-producing cells (immunostaining, morphology). The experiment is classed as cell-based. The note with it: from Table 1 and FIGS. 3 and 4; removal of one compound at a time.

In the case of `C=C[C@@]1(C)CC(=O)[C@]2(O)[C@@]3(C)[C@@H](O)CCC(C)(C)[C@@H]3[C@H](O)[C@H](OC(C)=O)[C@@]2(C)O1` [forskolin, Forskolin], the “importance for conversion into cells expressing insulin” value is recorded as “of particular importance”.
For `O=c1cc(N2CCOCC2)oc2c(-c3ccccc3)cccc12` [LY294002] the value was “of particular importance”.
